Measurements: patent publication US10828315B2 (Madrigal Pharmaceuticals, Inc., priority 2013, dated 2020)
Where two headings read alike, the source gives them in different places. Values belong to the molecule of their own block, whether it stands above or below them.

How the values were obtained:
[1] = Artificial membrane permeability assay (PAMPA)
[2] = Retention of docetaxel SDC-TRAPs in plasma and tumor (Example 53); assay type: in vivo, Female SCID Mouse (H1975); details: DRD
HER2 = HER2 degradation assay with BT-474 cell line (Example 12, FACS); assay type: cell-based, human
[3] = of analyte at 48 h, dosed SDC-TRAP-0426 25 mg/10 mL/kg IV, Table 4
[4] = of analyte at 48 h, dosed SDC-TRAP-0423 7 mg/10 mL/kg IV, Table 5, second optimized procedure
[5] = of analyte at 72 h, dosed SDC-TRAP-0423 7 mg/10 mL/kg IV, Table 5, second optimized procedure
[6] = of analyte at 48 h, dosed SDC-TRAP-0428 25 mg/10 mL/kg IV, Table 4
[7] = of analyte at 24 h, dosed SDC-TRAP-0427 25 mg/10 mL/kg IV, Table 4
[8] = of analyte at 48 h, dosed SDC-TRAP-0427 25 mg/10 mL/kg IV, Table 4
[9] = of analyte at 72 h, dosed SDC-TRAP-0427 25 mg/10 mL/kg IV, Table 4

Structure (SMILES): CC(=O)O[C@@]12CO[C@@H]1C[C@H](O)[C@@]1(C)C(=O)[C@H](O)C3=C(C)[C@@H](OC(=O)[C@H](O)[C@@H](NC(=O)OC(C)(C)C)c4ccccc4)C[C@@](O)([C@@H](OC(=O)c4ccccc4)[C@H]21)C3(C)C [Docetaxel, docetaxel, reference compound]
Mass Retention ([1]; incubation 5 h, first table): 17.6%

Structure (SMILES): CC(=O)O[C@@]12CO[C@@H]1C[C@H](O)[C@@]1(C)C(=O)[C@H](O)C3=C(C)[C@@H](OC(=O)[C@H](OC(=O)CCC(=O)N4CCC(N5CCC(CCn6ccc7cc(-n8c(O)nnc8-c8cc(C(C)C)c(O)cc8O)ccc76)CC5)CC4)[C@@H](NC(=O)OC(C)(C)C)c4ccccc4)C[C@@](O)([C@@H](OC(=O)c4ccccc4)[C@H]21)C3(C)C [SDC-TRAP-0426]
concentration at 6 h ([2]; female, SCID, mouse, in vivo, of analyte at 6 h, dosed SDC-TRAP-0426 25 mg/10 mL/kg IV, Table 4, read-out: Plasma Conc.): 31.1 nM
concentration at 24 h ([2]; female, SCID, mouse, in vivo, of analyte at 24 h, dosed SDC-TRAP-0426 25 mg/10 mL/kg IV, Table 4, read-out: Plasma Conc.): 11.1 nM
Tumor Conc. ([2]; of analyte at 6 h, dosed SDC-TRAP-0426 25 mg/10 mL/kg IV, Table 4): 0.375 nmol/g of tissue
Tumor Conc. ([2]; of analyte at 24 h, dosed SDC-TRAP-0426 25 mg/10 mL/kg IV, Table 4): 0.256 nmol/g of tissue
Plasma Conc. [2, 3]: BQL
Tumor Conc. [2, 3]: 0.337 nmol/g of tissue

Structure (SMILES): CCNC(=O)c1nnc(-c2cc(C(C)C)c(O)cc2O)n1-c1ccc(N(C)C2CCN(C(=O)CCC(=O)O[C@H](C(=O)O[C@@H]3C[C@]4(O)[C@H](OC(=O)c5ccccc5)[C@H]5C6(OC(C)=O)COC6C[C@@H](O)[C@]5(C)C(=O)[C@@H](O)C(=C3C)C4(C)C)[C@H](NC(=O)OC(C)(C)C)c3ccccc3)CC2)nc1 (some centres unmarked) [SDC-TRAP-0423]
concentration at 6 h ([2]; female, SCID, mouse, in vivo, of analyte at 6 h, dosed SDC-TRAP-0423 7 mg/10 mL/kg IV, Table 5, second optimized procedure, read-out: Plasma Conc.): 2210 nM
Tumor Conc. ([2]; of analyte at 6 h, dosed SDC-TRAP-0423 7 mg/10 mL/kg IV, Table 5, second optimized procedure): 0.730 nmol/g of tissue
Plasma Conc. [2, 4]: BQL
Tumor Conc. [2, 4]: 0.0538 nmol/g of tissue
Plasma Conc. [2, 5]: BQL
Tumor Conc. [2, 5]: 0.0186 nmol/g of tissue

Structure (SMILES): CC(=O)O[C@@]12CO[C@@H]1C[C@H](O)[C@@]1(C)C(=O)[C@H](O)C3=C(C)[C@@H](OC(=O)[C@H](OC(=O)C4CCN(C(=O)C5CCN(Cc6ccc(-n7c(O)nnc7-c7cc(C(C)C)c(O)cc7O)cc6)CC5)CC4)[C@@H](NC(=O)OC(C)(C)C)c4ccccc4)C[C@@](O)([C@@H](OC(=O)c4ccccc4)[C@H]21)C3(C)C [SDC-TRAP-0428]
Tumor Conc. ([2]; of analyte at 6 h, dosed SDC-TRAP-0428 25 mg/10 mL/kg IV, Table 4): 5.27 nmol/g of tissue
Tumor Conc. ([2]; of analyte at 24 h, dosed SDC-TRAP-0428 25 mg/10 mL/kg IV, Table 4): 3.89 nmol/g of tissue
Plasma Conc. [2, 6]: BQL
Tumor Conc. [2, 6]: 3.40 nmol/g of tissue
Tumor Conc. ([2]; of analyte at 72 h, dosed SDC-TRAP-0428 25 mg/10 mL/kg IV, Table 4): 1.20 nmol/g of tissue

Structure (SMILES): CC(=O)O[C@@]12CO[C@@H]1C[C@H](O)[C@@]1(C)C(=O)[C@H](O)C3=C(C)[C@@H](OC(=O)[C@H](OC(=O)CCC(=O)NC4CCN(C(=O)C5CCN(Cc6ccc(-n7c(O)nnc7-c7cc(C(C)C)c(O)cc7O)cc6)CC5)CC4)[C@@H](NC(=O)OC(C)(C)C)c4ccccc4)C[C@@](O)([C@@H](OC(=O)c4ccccc4)[C@H]21)C3(C)C [SDC-TRAP-0427]
concentration at 6 h ([2]; female, SCID, mouse, in vivo, of analyte at 6 h, dosed SDC-TRAP-0427 7 mg/10 mL/kg IV, Table 5, second optimized procedure, read-out: Plasma Conc.): 8390 nM
concentration at 6 h ([2]; female, SCID, mouse, in vivo, of analyte at 6 h, dosed SDC-TRAP-0427 25 mg/10 mL/kg IV, Table 4, read-out: Plasma Conc.): 20900 nM
concentration at 48 h ([2]; female, SCID, mouse, in vivo, of analyte at 48 h, dosed SDC-TRAP-0427 7 mg/10 mL/kg IV, Table 5, second optimized procedure, read-out: Plasma Conc.): 11.8 nM
concentration at 72 h ([2]; female, SCID, mouse, in vivo, of analyte at 72 h, dosed SDC-TRAP-0427 7 mg/10 mL/kg IV, Table 5, second optimized procedure, read-out: Plasma Conc.): 10.1 nM
Tumor Conc. ([2]; of analyte at 6 h, dosed SDC-TRAP-0427 7 mg/10 mL/kg IV, Table 5, second optimized procedure): 1.19 nmol/g of tissue
Tumor Conc. ([2]; of analyte at 6 h, dosed SDC-TRAP-0427 25 mg/10 mL/kg IV, Table 4): 13.6 nmol/g of tissue
Plasma Conc. [2, 7]: BQL
Tumor Conc. [2, 7]: 14.6 nmol/g of tissue
Tumor Conc. ([2]; of analyte at 48 h, dosed SDC-TRAP-0427 7 mg/10 mL/kg IV, Table 5, second optimized procedure): 0.458 nmol/g of tissue
Plasma Conc. [2, 8]: BQL
Tumor Conc. [2, 8]: 8.02 nmol/g of tissue
Tumor Conc. ([2]; of analyte at 72 h, dosed SDC-TRAP-0427 7 mg/10 mL/kg IV, Table 5, second optimized procedure): 0.372 nmol/g of tissue
Plasma Conc. [2, 9]: BQL
Tumor Conc. [2, 9]: 7.18 nmol/g of tissue

Structure (SMILES): Cn1c(=O)c2c(ncn2C)n(C)c1=O [Caffeine]
Mass Retention ([1]; incubation 5 h, first table): 20.8%
Mass Retention ([1]; same protocol, second table): −0.11%

Structure (SMILES): COc1cccc2c1C(=O)c1c(O)c3c(c(O)c1C2=O)C[C@@](O)(C(=O)CO)C[C@@H]3O[C@H]1C[C@H](N)[C@H](O)[C@H](C)O1 [Doxorubicin, doxorubicin, reference compound]
Mass Retention ([1]; incubation 5 h, first table): 21.0%

Structure (SMILES): CCc1c2c(nc3ccc(OC(=O)N4CCC[C@H]4C(=O)N4CCC(CCn5ccc6cc(-n7c(O)nnc7-c7cc(C(C)C)c(O)cc7O)ccc65)CC4)cc13)-c1cc3c(c(=O)n1C2)COC(=O)[C@]3(O)CC [SDC-TRAP-0210]
Mass Retention ([1]; incubation 5 h, first table): 34.8%
Mass Retention ([1]; same protocol, second table): 72.2%
IC50 (HER2): > 10 µM

Structure (SMILES): CC(C)c1cc(-c2nnc(O)n2-c2ccc3c(ccn3CCNC(=O)CCCCCNC(=O)CCCC[C@H]3SCC4NC(=O)NC43)c2)c(O)cc1O (stereo in doubt) [SDC-TRAP-0234, N-(2-(5-(3-(2,4-dihydroxy-5-isopropylphenyl)-5-hydroxy-4H-1,2,4-triazol-4-yl)-1H-indol-1-yl)ethyl)-6-(5-((3aR,4R,6aS)-2-oxohexahydro-1H-thieno[3,4-d]imidazol-4-yl)pentanamido)hexanamide]
Mass Retention ([1]; incubation 5 h, first table): 9.56%

The remaining lines, values ahead:

Mass Retention ([1]; incubation 5 h, first table): 21.0%
Structure (SMILES): CC(C)c1cc(-c2nnc(C(=O)NCCCCCS(N)(=O)=O)n2-c2ccc(CN3CCOCC3)cc2)c(O)cc1O [SDC-TRAP-0232, 5-(2,4-dihydroxy-5-isopropylphenyl)-4-(4-(morpholinomethyl)phenyl)-N-(5-sulfamoylpentyl)-4H-1,2,4-triazole-3-carboxamide]

Mass Retention ([1]; incubation 5 h, first table): 10.8%
Structure (SMILES): CC(C)c1cc(-c2nnc(O)n2-c2ccc3c(ccn3CCOCCNC(=O)CCn3cc(F)c(=O)[nH]c3=O)c2)c(O)cc1O [SDC-TRAP-0048, N-(2-(2-(5-(3-(2,4-dihydroxy-5-isopropylphenyl)-5-hydroxy-4H-1,2,4-triazol-4-yl)-1H-indol-1-yl)ethoxy)ethyl)-3-(5-fluoro-2,4-dioxo-3,4-dihydropyrimidin-1(2H)-yl)propanamide]

Mass Retention ([1]; incubation 5 h, first table): 10.9%
Structure (SMILES): CC(C)c1cc(-c2nnc(O)n2-c2ccc3c(ccn3CCNC(=O)CCCC[C@@H]3SCC4NC(=O)NC43)c2)c(O)cc1O (stereo in doubt) [SDC-TRAP-0233, N-(2-(5-(3-(2,4-dihydroxy-5-isopropylphenyl)-5-hydroxy-4H-1,2,4-triazol-4-yl)-1H-indol-1-yl)ethyl)-5-((3aS,4S,6aR)-2-oxohexahydro-1H-thieno[3,4-d]imidazol-4-yl)pentanamide]

Mass Retention ([1]; incubation 5 h, first table): 10.2%
Structure (SMILES): CCNC(=O)c1nnc(-c2cc(C(C)C)c(O)cc2O)n1-c1ccc(CN2CCC(C(=O)N[C@@H](CC(C)C)C(=O)Nc3cccc4c3CN(C3CCC(=O)NC3=O)C4=O)CC2)cc1 (stereo partly drawn) [SDC-TRAP-0193, 1-(4-(3-(2,4-dihydroxy-5-isopropylphenyl)-5-(ethylcarbamoyl)-4H-1,2,4-triazol-4-yl)benzyl)-N-((2S)-1-((2-(2,6-dioxopiperidin-3-yl)-1-oxoisoindolin-4-yl)amino)-4-methyl-1-oxopentan-2-yl)piperidine-4-carboxamide]

Mass Retention ([1]; incubation 5 h, first table): 14.1%
Structure (SMILES): CC(C)c1cc(-c2nnc(O)n2-c2ccc(CN3CCN(C(=O)CCn4cc(F)c(=O)[nH]c4=O)CC3)cc2)c(O)cc1O [SDC-TRAP-0049, 1-(3-(4-(4-(3-(2,4-dihydroxy-5-isopropylphenyl)-5-hydroxy-4H-1,2,4-triazol-4-yl)benzyl)piperazin-1-yl)-3-oxopropyl)-5-fluoropyrimidine-2,4(1H,3H)-dione]
